The values that follow come from patent publication US5541232A, “Treatment of multidrug resistant diseases” (Chemex Pharmaceuticals, Inc., priority 1994, dated 1996).

One data set can be described thus: stability to oxidation. The settings on record: for example, by air. The class given is physicochemical. An excerpt: The pH of the formulation is important in assuring stability of NDGA or its analogue as well as assuring that the formulation is physiologically acceptable to the patient. […] Such oxidation can result in discoloration of the formulation rendering it unacceptable for pharmaceutical use. […] Therefore, it is preferred that if the formulation is to be exposed to oxidizing conditions the pH to be maintained below about 7 and preferably below about 6 in order to provide maximum stability for the compound against oxidation. However, if the oxidizing conditions can be avoided, for example, by storage of the formulation under an inert atmosphere such as nitrogen, a higher pH can be used. The pH of the formulation may be maintained through the use of toxicologically-acceptable buffers. Such buffers are well-known in the pharmaceutical formulation art, and include hydrochloric acid buffer, acid phthalate buffer, phosphate buffer and citric acid/sodium citrate buffer.

Data set [1] concerns GRC-1 multidrug resistant human cervical carcinoma cells. The data set can be described thus: modulation of VBL toxicity (colony formation), GRC-1. The class given is cell-based. The settings on record: 25 μM masoprocol, 10 days, 37° C. Here is the method:
(§1) Drug-sensitive KB-3-1 cells and the drug resistant subline (KB-GRC-1) were obtained from Dr. Igor Roninson (University of Illinois, College of Medicine, Chicago, Ill.). Cells were maintained in Dulbecco's modified Eagle's medium supplemented with 10% fetal bovine serum and 2 mM glutamine. The KB-GRC-1 cells were maintained in medium supplemented with 6 ng/ml colchicine.
To test the modulation of VBL toxicity by masoprocol, cells which had been seeded at 200-300 cells/dish were incubated in media containing various concentrations of VBL in the absence or presence of 25 μM masoprocol. After an incubation period of 10 days at 37° C. the cells were fixed and stained, and the number of colonies per dish were counted and expressed as a percent of the number of colonies formed in control conditions. 1.

Data set [2] deals with Hs 68 Newborn Foreskin Fibroblasts. The data set can be described thus: in vitro cytotoxicity, normal cells. The class given is cell-based. As to conditions: Homo sapiens, read-out: IC50.
The subject of the next data set is normal cells. The data set can be described thus: toxicity to normal cells as opposed to cancer cells. The class given is cell-based.
The subject of data set [3] is Detroit 551 Skin Fibroblasts. The data set is described as follows: in vitro cytotoxicity, normal cells. The class given is cell-based. The settings on record: Homo sapiens, read-out: IC50.
Data set [4] concerns several types of cancer cells. The settings on record: Cancer Chemotherapy National Service Center; cited from earlier work.
The test system of data set [5] is KB-3-1 human cervical carcinoma cells. The data set is described as follows: initial influx of VBL, KB-3-1. The class given is cell-based. The settings on record: 50 μM masoprocol added concurrently with VBL, 3 to 24 seconds; FIG. 4b. Here is the method: A further test was conducted to show the effect of masoprocol on the initial influx of VBL. Cells were exposed to media containing [^3 H]VBL with and without 50 μM masoprocol. After incubation times ranging from 3 seconds to 24 seconds, the media was removed. The amount of VBL taken up by the cells was determined as described in A. The data was summarized from four replicate experiments. FIG. 4apresents the results for the GRC-1 cell line, and FIG. 4b for the KB-3-1 cell line.

Data set [6] deals with OVCAR3 ovarian cancer cells. The data set is described as follows: in vitro cytotoxicity anti tumor activity. The class given is cell-based. As to conditions: Homo sapiens, read-out: IC50.
A further data set deals with malignant melanoma. As to conditions: in vivo; cited from earlier work.
Data set [7] relates to GRC-1 multidrug resistant human cervical carcinoma cells. The data set is described as follows: inhibition of colony formation, GRC-1. The settings on record: Homo sapiens, 240 h, read-out: IC50 (Masoprocol), 50% inhibition of colony formation; 10 days, 37° C.; parenthesis: standard deviation. The class given is cell-based.
Description: To investigate whether masoprocol modulates multidrug resistance, a line of multidrug resistant (GRC-1) cells which were derived from parenteral drug sensitive human cervical carcinoma (KB-3-1) cells by transfection of the mdr1 genes were employed. Such transfection was by the method set forth in Choi, et al., Cell 53:519-529, 1989. These cell lines differ only with respect to the over-expression of P-glycoprotein. These tests were designed to examine whether masoprocol modulates tumor cell drug resistance by interfering with P-glycoprotein function. […] See, Regulation of initial vinblastine influx by P-glycoprotein, Shalinsky, et al., cited above.
Masoprocol was provided by Chemex Pharmaceuticals, Inc. (Fort Lee, N.J.). Tritiated vinblastine ([^3 H]VBL) (10 Ci mmol^-1) was purchased from Moravek Biochemicals (Brea, Calif.), stored in the dark at -80° C. and protected from light during the experiments. Dipyridamole (DPM) was provided by Boerhinger Ingelheim Pharmaceuticals, Inc. (Ridgefield, Conn.).
as §1
First, cells which had been seeded at 200-300 cells/dish were incubated in media containing masoprocol or VBL. After an incubation period of 10 days at 37° C. the cells were fixed with methanol and stained with Giemsa, and the number of colonies per dish were counted and expressed as a percent of the number of colonies in control conditions. […] Parenthesis indicate standard deviations determined from replicate experiments.

The subject of data set [8] is MCF7/0 human breast adenocarcinoma cells. The data set is described as follows: flow cytometry P-glycoprotein function assay of doxorubicin efflux, MCF7/0 (doxorubicin sensitive). The class given is cell-based. Here is the method: The following tests were preformed to determine the effect of NDGA on efflux of doxorubicin (hereinafter sometimes referred to as DOX) for doxorubicin sensitive MCF7/0 and doxorubicin resistant MCF7/ADR human breast adenocarcinoma cells in vitro.
The cells were exposed to 50 μg/ml NDGA for 24 hrs prior to loading with DOX (doxorubicin) at 37° C. […] PBS. Flow analysis of cell efflux of DOX was collected over 30 minutes using the time parameter.
Procedure for P-Glycoprotein (PGP) Function Assay of Doxorubicin Efflux is shown hereunder.
1. […] Store at room temperature.
2. Doxorubicin (GFW=580) Make a solution of doxorubicin to contain 10 μg/ml. Store frozen at 0° C.
4. NDGA (MW=302.36) Make a solution of NDGA to contain 50 μg/ml. Store frozen at 0° C.
5. MCF7/0 (Doxorubicin sensitive) and MCF7/ADR (Doxorubicin resistant), human breast adenocarcinoma cell lines.
1. Make up 2×10^6 cells per ml in PBS. Expose 1 ml of cells to 50 μg of NDGA for 24 hrs at 37° C. prior to loading with Doxorubicin.
2. Add 1 ml of 10 μg/ml doxorubicin, mix and divide into two aliquots.
4. Incubate both tubes at 37° C. for 30 minutes.
5. Centrifuge the tubes at 37° C. for 5 minutes on a fast spin to pellet cells. Resuspend in 1 ml of buffer.
6. Run immediately on the flow cytometer. Excitation 488 nm, emission 560-600 nm. Collect forward and 90° side scatter and PMT4 linear scale. Collect 10,000-50,000 events and calculate the mean channel fluorescence (MCF) for PMT4.
7. Run both samples as close together as possible, and avoid prolonged exposure to room temperature.
(In general: Flow cytometry measures light scatter and fluorescence of single cells or particles in a stream.)

Each structure is given as a SMILES string. Entries after “also recorded” stand apart in the source; their conditions may differ. Like-named read-outs stand apart in the source and are kept apart here.

Usually IC50 stands for the concentration at which inhibition is half-maximal. As for `C[C@H](Cc1ccc(O)c(O)c1)[C@@H](C)Cc1ccc(O)c(O)c1` [Masoprocol, meso-1,4-bis (3,4-dihydroxyphenyl)-2,3-dimethylbutane], in “stability to oxidation”, the susceptibility to oxidation entry is given as “susceptible to oxidation”. In addition, the “effect on VBL cytotoxicity / colony formation” value in data set [1] is reported as “increase in the cytotoxicity of VBL; also recorded: increases the cytotoxic effect of VBL”. For the same compound, the IC50 was 178 µM in [2] (Hs68, 1 h, One Hour Pulse Treatment); 18 µM in data set [2] (Hs68, Continuous Drug Exposure, observation at 70 hours); 62.7 µM in data set [3] (Detroit 551, 1 h, One Hour Pulse Treatment); 312 µM in [3] (Detroit 551, Continuous Drug Exposure, observation at 70 hours); 258 µM in data set [6] (OVCAR-3, 1 h, One Hour Pulse Treatment); 35.9 µM in [6] (OVCAR-3, Continuous Drug Exposure, observation at 70 hours). Further, the IC50 in data set [7] turned out to be 66.8 µM. In addition, the “toxicity to normal cells versus doxorubicin” value with normal cells is on record as “less toxic than doxorubicin”. Also, in data set [4], the “result in screening against cancer cells” value is listed as “negative results”. For the same compound, the “initial VBL uptake (influx)” value in [5] is “substantial increase in initial VBL uptake; also recorded: effective modulator of initial VBL influx; also recorded: promotes the initial uptake of VBL”. Besides, the “result against malignant melanoma” value in the data set on malignant melanoma was “positive result”. The activation at 50 µg/mL in [8] (Homo sapiens, MCF7, 24 h, read-out: % DOX increase w/NDGA) turned out to be 44.5%. Further, in data set [8] (sensitive cells), the “DOX loading / retention / accumulation (in words)” value was “loading more DOX after NDGA treatment than controls or verapamil treated cells”.
